Test results as given in patent US20160000074A1, “HERBICIDAL COMPOSITION AND METHOD OF USE THEREOF” (SYNGENTA PARTICIPATIONS AG, priority 2013, published 2016).

Experiments:
Assay in all cases: Turf selectivity evaluation, visual phytotoxicity, glasshouse pots
Assay type in all cases: in vivo
Conditions in all cases: visual evaluation 7, 14, 21, 28 DAA
[1] = system: Poa annua var. Reptans (POAAN, Annual bluegrass, True Putt)
Description: (§1) Turf selectivity evaluations were performed on the most important cool-season turf varieties, across 4 application rates with two replications contained within a factorial design. Sarmentine was applied at 0, 1500, 3000, and 6000 g ai ha^−1 on Sep. 11, 2010 using a spray volume of 800 L ha^−1 with 0.2% V/V x-77 adjuvant. The solution was delivered with LU 90-02S Lechler nozzles at 2.58 bars with an application speed of 0.96 km hr^−1.
(§2) Plants were grown in 9 cm diameter pots using Les Barges soil, previously characterized as containing 25.4% clay; 7.1% loam, 67.5% sand, 7% CaCO3, 2.4% organic matter, and pH 7.5. Pots were fertilized with Oscarna Rasaflor at 100 g m-2 at seeding. Plants were grown throughout the experiment with day/night temperatures of 23° C./15° C. with relative humidity of between 50-60%.
(§3) Turf species (Table 1) were visually evaluated for symptoms of phytotoxicity (%) using the untreated control as a bench-mark for comparison at 7, 14, 21, and 28 days after application (DAA). Turfgrass species were mown at 13 DAA.

[2] = system: Festuca arundinacea (FESAR, Tall Fescue, Farandole)
Description: as §1, §2, §3

[3] = system: Poa pratensis (POAPR, Kentucky Bluegrass, Midnight star)
Description: as §1, §2, §3

[4] = system: Lolium perenne (LOLPE, Perennial Ryegrass, Citation Fore)
Description: as §1, §2, §3

[5] = system: Agrostis stolonifera (AGSST, Creeping Bentgrass, Pennlinks)
Description: as §1, §2, §3

[6] = rate 1500 g ai ha^-1, grass x rate estimate
[7] = rate 3000 g ai ha^-1, grass x rate estimate
[8] = rate 6000 g ai ha^-1, grass x rate estimate

CCCCC/C=C/C=C/C(=O)N1CCCC1 [sarmentine, N-(2E,4E-Decadienoyl)pyrrolidine]
Phyto-toxicity Estimate (% of Untreated) [1, 6]: 35.0 % of Untreated
Phyto-toxicity Estimate (% of Untreated) [1, 7]: 53.8 % of Untreated
Phyto-toxicity Estimate (% of Untreated) [1, 8]: 83.1 % of Untreated
Phyto-toxicity Estimate (% of Untreated) [2, 6]: 14.1 % of Untreated
Phyto-toxicity Estimate (% of Untreated) [2, 7]: 22.8 % of Untreated
Phyto-toxicity Estimate (% of Untreated) [2, 8]: 31.3 % of Untreated
Phyto-toxicity Estimate (% of Untreated) [3, 6]: 6.3 % of Untreated
Phyto-toxicity Estimate (% of Untreated) [3, 7]: 8.8 % of Untreated
Phyto-toxicity Estimate (% of Untreated) [3, 8]: 21.3 % of Untreated
Phyto-toxicity Estimate (% of Untreated) [4, 6]: 15.3 % of Untreated
Phyto-toxicity Estimate (% of Untreated) [4, 7]: 27.2 % of Untreated
Phyto-toxicity Estimate (% of Untreated) [4, 8]: 46.3 % of Untreated
Phyto-toxicity Estimate (% of Untreated) [5, 6]: 13.1 % of Untreated
Phyto-toxicity Estimate (% of Untreated) [5, 7]: 19.4 % of Untreated
Phyto-toxicity Estimate (% of Untreated) [5, 8]: 27.5 % of Untreated
